Experimental data taken from the supplement of paper PMC11208160.

assay: recombinant barcode read abundance after kanamycin selection (control-corrected) (log10(CPM+1)); higher = more efficient recombination; sequences stand for … in AGTGCAGAGAAAATCGGCCAGTTTTCTCTGCCTGCAGTCCGCATGCCGT…ATTTATGCAGCGGACTGCCTTTCTCCCAAAGTGATAAACCGGACAGTATCATGGACCGGTTTTCCCGGTAATCCGTATTTGCAAGGTTGGTTTCACT; site = the 11-nt target
Procedure: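 Same pooled E. coli target screen (IS621 bridge recombinase, kanamycin selection, control-corrected CPM, mean of 2 biological replicates). Here the two core-binding nucleotides of the LTG and RTG of the bridge RNA target-binding loop are mutated. Target and donor CT cores are held constant, and the other 9 guide positions match the target. The target is read from the library oligo sequence. Molecule = full bridge RNA written as DNA: nt 1-80 from the library oligo, rest WT scaffold.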

“AAACACAACTGGGTTCTAACCTGTTGCCTGT [AAACACACTAG_LTGcore_AC_RTGcore_AC] (site AAACACACTAG) (LTG core: AC, RTG core: AC)” and “AAACACAATTGGGTTCTAACCTGTTGCCTAT [AAACACACTAG_LTGcore_AT_RTGcore_AT] (site AAACACACTAG) (LTG core: AT, RTG core: AT)” are within 0.2 log units of each other in “recombinant barcode read abundance (log10)” value: 0.0446 for the first, 0.209 for the second.

Going from “AAACACACTTGGGTTCTAACCTGTTGCCTCT [AAACACACTAG_LTGcore_CT_RTGcore_AG] (site AAACACACTAG) (LTG core: CT, RTG core: AG)” to “AAACACACTTGGGTTCTAACCTGTTGCCTGA [AAACACACTAG_LTGcore_CT_RTGcore_TC] (site AAACACACTAG) (LTG core: CT, RTG core: TC)”, the “recombinant barcode read abundance (log10)” value falls from 2.46 to 1.19.

In the case of “AAACACACTTGGGTTCTAACCTGTTGCCTTC [AAACACACTAG_LTGcore_CT_RTGcore_GA] (site AAACACACTAG) (LTG core: CT, RTG core: GA)”, the “recombinant barcode read abundance (log10)” value is reported as 0.477.

assay: recombinant barcode read abundance after kanamycin selection (control-corrected) (log10(CPM+1)); higher = more efficient recombination; sequences stand for … in AGTGCAGAGAAAATCGGCCAGTTTTCTCTGCCTGCAGTCCGCATGCCGT…AGATTTATGCAGCGGACTGCCTTTCTCCCAAAGTGATAAACCGGACAGTATCATGGACCGGTTTTCCCGGTAATCCGTATTTGCAAGGTTGGTTTCACT; site = the 11-nt target
In short: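 A promoter, a target, a barcode and the first 104 bridge RNA bases under J23119 made up each oligo. Oligos were Gibson-cloned into a vector bearing the other 73 bp and a T7-inducible recombinase, then co-electroporated into E. coli with a donor plasmid and plated in duplicate on chloramphenicol/ampicillin LB agar (control) or chloramphenicol/ampicillin/kanamycin with 0.1 mM IPTG. Recombination efficiency is the averaged, control-corrected counts per million of recombinant-junction barcodes. Reported values are log10(CPM+1).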

“TTCTCTCCTTGGGTTCTAACCTGTTGCCT (site TTCTATCCTAG)” and “TTCTCTCCTTGGGTTCTAACCTGTTGCCT (site TTCTCTCCTAG)” are within 0.2 log units of each other in “recombinant barcode read abundance (log10)” value: 0.0831 for the first, 0.206 for the second.

“TTCTCTCCTTGGGTTCTAACCTGTTGCCT (site TTCTGTCCTAG)” and “TTCTCTCCTTGGGTTCTAACCTGTTGCCT (site TTCTTTCCTAG)” are within 0.2 log units of each other in “recombinant barcode read abundance (log10)” value: 0.00855 for the first, 0.169 for the second.

“TTCTCTTCTTGGGTTCTAACCTGTTGCCT (site TTCTCTTCTAG)” and “TTCTCTTCTTGGGTTCTAACCTGTTGCCT (site TTCTGTTCTAG)” are within 0.2 log units of each other in “recombinant barcode read abundance (log10)” value: 0.0495 for the first, 0.103 for the second.

“TTCTGAACTTGGGTTCTAACCTGTTGCCT (site GTCTCAACTAG)” and “TTCTGAACTTGGGTTCTAACCTGTTGCCT (site TTCTGAACTAG)” are within 0.2 log units of each other in “recombinant barcode read abundance (log10)” value: 0.109 for the first, 0.126 for the second.

Compared with “TTCTTACCTTGGGTTCTAACCTGTTGCCT (site TACTTACCTAG)”, “TTCTTACCTTGGGTTCTAACCTGTTGCCT (site TTCTTACCTAG)” is higher in “recombinant barcode read abundance (log10)” value: 0.0709 for the first, 0.654 for the second.

Going from “TTCTTGCCTTGGGTTCTAACCTGTTGCCT (site TTATTGTCTAG)” to “TTCTTGCCTTGGGTTCTAACCTGTTGCCT (site TTCTTGCCTAG)”, the “recombinant barcode read abundance (log10)” value rises from 0.111 to 0.665.

“TTCTTTCCTTGGGTTCTAACCTGTTGCCT (site TTCTATCCTAG)” and “TTCTTTCCTTGGGTTCTAACCTGTTGCCT (site TTCTCTCCTAG)” are within 0.2 log units of each other in “recombinant barcode read abundance (log10)” value: 0.0663 for the first, 0.0684 for the second.

“TTCTTTCCTTGGGTTCTAACCTGTTGCCT (site TTCTGTCCTAG)” and “TTCTTTCCTTGGGTTCTAACCTGTTGCCT (site TTCTTTCCTAG)” are within 0.2 log units of each other in “recombinant barcode read abundance (log10)” value: 0.0839 for the first, 0.11 for the second.

“TTGACGACTTGGGTTCTAACCTGTTGCCA (site TTGACGACTTG)” and “TTGACGACTTGGGTTCTAACCTGTTGCCA (site TTGCCGACTTG)” are within 0.2 log units of each other in “recombinant barcode read abundance (log10)” value: 0.36 for the first, 0.217 for the second.

“TTGACGACTTGGGTTCTAACCTGTTGCCA (site TTGGCGACTTG)” and “TTGACGACTTGGGTTCTAACCTGTTGCCA (site TTGTCGACTTG)” are within 0.2 log units of each other in “recombinant barcode read abundance (log10)” value: 0.116 for the first, 0.0686 for the second.

“TTGACGGCTTGGGTTCTAACCTGTTGCCT (site CCATTCCCTTA)” and “TTGACGGCTTGGGTTCTAACCTGTTGCCT (site TTGACGGCTAG)” are within 0.2 log units of each other in “recombinant barcode read abundance (log10)” value: 0.041 for the first, 0.165 for the second.

“TTGAGGACTTGGGTTCTAACCTGTTGCCT (site ATGAGGACTAG)” and “TTGAGGACTTGGGTTCTAACCTGTTGCCT (site CTGAGGACTAG)” are within 0.2 log units of each other in “recombinant barcode read abundance (log10)” value: 0.0377 for the first, 0.146 for the second.

Compared with “TTGAGGACTTGGGTTCTAACCTGTTGCCT (site GTGAGGACTAG)”, “TTGAGGACTTGGGTTCTAACCTGTTGCCT (site TTGAGGACTAG)” is higher in “recombinant barcode read abundance (log10)” value: 0 for the first, 0.606 for the second.

First: TTGAGGCCTTGGGTTCTAACCTGTTGCGG (site TCGAGTCCTCC)
Second: TTGAGGCCTTGGGTTCTAACCTGTTGCGG (site TTGAGGCCTCC)
The “recombinant barcode read abundance (log10)” value of the first is lower: 0.141 for the first, 2.39 for the second.

Compared with “TTGAGTGCTTGGGTTCTAACCTGTTGCCT (site TTGAATGCTAG)”, “TTGAGTGCTTGGGTTCTAACCTGTTGCCT (site TTGACTGCTAG)” is lower in “recombinant barcode read abundance (log10)” value: 0.259 for the first, 0.0508 for the second.

Compared with “TTGAGTGCTTGGGTTCTAACCTGTTGCCT (site TTGAGTGCTAG)”, “TTGAGTGCTTGGGTTCTAACCTGTTGCCT (site TTGATTGCTAG)” is lower in “recombinant barcode read abundance (log10)” value: 0.804 for the first, 0.254 for the second.

“TTGATTGCTTGGGTTCTAACCTGTTGCCT (site TTGAATGCTAG)” and “TTGATTGCTTGGGTTCTAACCTGTTGCCT (site TTGACTGCTAG)” are within 0.2 log units of each other in “recombinant barcode read abundance (log10)” value: 0.0762 for the first, 0.0306 for the second.

“TTGATTGCTTGGGTTCTAACCTGTTGCCT (site TTGAGTGCTAG)” and “TTGATTGCTTGGGTTCTAACCTGTTGCCT (site TTGATTGCTAG)” are within 0.2 log units of each other in “recombinant barcode read abundance (log10)” value: 0.425 for the first, 0.497 for the second.

Compared with “TTGCGTGCTTGGGTTCTAACCTGTTGCTT (site TTGCGAGCTAT)”, “TTGCGTGCTTGGGTTCTAACCTGTTGCTT (site TTGCGTGCTAA)” is higher in “recombinant barcode read abundance (log10)” value: 0.27 for the first, 0.518 for the second.

First: TTGCTAGCTTGGGTTCTAACCTGTTGCGG (site GGAACTACTGT)
Second: TTGCTAGCTTGGGTTCTAACCTGTTGCGG (site TTGCTAGCTCC)
The “recombinant barcode read abundance (log10)” value of the first is lower: 0.0762 for the first, 1.56 for the second.

Going from “TTGGAAGCTTGGGTTCTAACCTGTTGCCT (site TTGGAAGCTAG)” to “TTGGAAGCTTGGGTTCTAACCTGTTGCCT (site TTGGCAGCTAG)”, the “recombinant barcode read abundance (log10)” value falls from 2.1 to 0.0513.

First: TTGGAAGCTTGGGTTCTAACCTGTTGCCT (site TTGGGAGCTAG)
Second: TTGGAAGCTTGGGTTCTAACCTGTTGCCT (site TTGGTAGCTAG)
The “recombinant barcode read abundance (log10)” value of the first is lower: 0.541 for the first, 2.19 for the second.

Going from “TTGGAGGCTTGGGTTCTAACCTGTTGCCT (site AGCAGTACTTA)” to “TTGGAGGCTTGGGTTCTAACCTGTTGCCT (site TTGGAGGCTAG)”, the “recombinant barcode read abundance (log10)” value rises from 0.0388 to 1.45.

Compared with “TTGGATCCTTGGGTTCTAACCTGTTGCCT (site TTGGATCCTAA)”, “TTGGATCCTTGGGTTCTAACCTGTTGCCT (site TTGGATCCTAG)” is higher in “recombinant barcode read abundance (log10)” value: 0.382 for the first, 2.31 for the second.

Going from “TTGGCGCCTTGGGTTCTAACCTGTTGCCT (site TCGGCTCCTAG)” to “TTGGCGCCTTGGGTTCTAACCTGTTGCCT (site TTGGCGCCTAG)”, the “recombinant barcode read abundance (log10)” value rises from 0.0935 to 0.529.

Going from “TTGGGAGCTTGGGTTCTAACCTGTTGCCT (site TTGGAAGCTAG)” to “TTGGGAGCTTGGGTTCTAACCTGTTGCCT (site TTGGCAGCTAG)”, the “recombinant barcode read abundance (log10)” value falls from 0.984 to 0.11.

Compared with “TTGGGAGCTTGGGTTCTAACCTGTTGCCT (site TTGGGAGCTAG)”, “TTGGGAGCTTGGGTTCTAACCTGTTGCCT (site TTGGTAGCTAG)” is lower in “recombinant barcode read abundance (log10)” value: 2.26 for the first, 0.442 for the second.

“TTGGGCGCTTGGGTTCTAACCTGTTGCCT (site TTGGACGCTAG)” and “TTGGGCGCTTGGGTTCTAACCTGTTGCCT (site TTGGCCGCTAG)” are within 0.2 log units of each other in “recombinant barcode read abundance (log10)” value: 0.0866 for the first, 0.154 for the second.

Going from “TTGGGCGCTTGGGTTCTAACCTGTTGCCT (site TTGGGCGCTAG)” to “TTGGGCGCTTGGGTTCTAACCTGTTGCCT (site TTGGTCGCTAG)”, the “recombinant barcode read abundance (log10)” value falls from 0.643 to 0.0335.

“TTGGTCACTTGGGTTCTAACCTGTTGCCT (site TTGGACACTAG)” and “TTGGTCACTTGGGTTCTAACCTGTTGCCT (site TTGGCCACTAG)” are within 0.2 log units of each other in “recombinant barcode read abundance (log10)” value: 0.358 for the first, 0.309 for the second.

Compared with “TTGGTCACTTGGGTTCTAACCTGTTGCCT (site TTGGGCACTAG)”, “TTGGTCACTTGGGTTCTAACCTGTTGCCT (site TTGGTCACTAG)” is higher in “recombinant barcode read abundance (log10)” value: 0.205 for the first, 2.1 for the second.

Going from “TTGGTCGCTTGGGTTCTAACCTGTTGCCT (site TTGGACGCTAG)” to “TTGGTCGCTTGGGTTCTAACCTGTTGCCT (site TTGGCCGCTAG)”, the “recombinant barcode read abundance (log10)” value rises from 0.0736 to 1.4.

First: TTGGTCGCTTGGGTTCTAACCTGTTGCCT (site TTGGGCGCTAG)
Second: TTGGTCGCTTGGGTTCTAACCTGTTGCCT (site TTGGTCGCTAG)
The “recombinant barcode read abundance (log10)” value of the first is lower: 0.085 for the first, 1.71 for the second.

Going from “TTGTAGACTTGGGTTCTAACCTGTTGCCT (site TTGATGACTAG)” to “TTGTAGACTTGGGTTCTAACCTGTTGCCT (site TTGTAGACTAG)”, the “recombinant barcode read abundance (log10)” value rises from 0.484 to 1.22.

Going from “TTGTGTTCTTGGGTTCTAACCTGTTGCTA (site GTGTGTTCTTG)” to “TTGTGTTCTTGGGTTCTAACCTGTTGCTA (site TTGTGTTCTTA)”, the “recombinant barcode read abundance (log10)” value rises from 0.0284 to 0.465.
